Source: PubChem BioAssay (NCI)
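Where inhibition never reached the appropriate level, the endpoint shown equals the highest concentration tested. Otherwise, values were interpolated linearly from a five-concentration, 48-hour dose response in 96-well plates. GI50 = concentration required for 50% inhibition of growth. TGI: total growth inhibition.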

Assays:
Assay in all cases: NCI tumour cell line growth inhibition, 48 h
[1] = test system: HCT-15 colon
[2] = test system: HCC-2998 colon
[3] = test system: NCI-H460 lung
[4] = test system: MCF7 breast
[5] = test system: SNB-75 CNS
[6] = test system: RPMI-8226 leukemia
[7] = test system: HCT-116 colon
[8] = test system: RXF 393 renal
[9] = test system: SN12C renal
[10] = test system: SNB-19 CNS

SMILES	GI50 [1] [µM]	TGI [1] [µM]	GI50 [2] [µM]	TGI [2] [µM]	GI50 [3] [µM]	TGI [3] [µM]	GI50 [4] [µM]	TGI [4] [µM]	GI50 [5] [µM]	TGI [5] [µM]	GI50 [6] [µM]	TGI [6] [µM]	GI50 [7] [µM]	TGI [7] [µM]	GI50 [8] [µM]	TGI [8] [µM]	GI50 [9] [µM]	TGI [9] [µM]	GI50 [10] [µM]	TGI [10] [µM]
O=S(=O)(NC1=NCCN1C(=S)SN1CCn2c1nsc2=S)c1ccc(Oc2ccccc2)cc1	72.1	> 100	41.7	> 100	51.2	> 100	25.7	> 100	39.5	> 100	30.2	> 100	51.2	> 100	32.4	86.1	59.8	> 100	> 100	> 100
CCCCC(=O)N(c1ccc(Nc2c3ccccc3nc3cc([N+](=O)[O-])ccc23)cc1)S(C)(=O)=O	4.45	29	14.1	30	0.381	12.8	0.293	9.83	4.7	64.8	2.68	14.3	3.78	19.8	8.44	27.8	4.86	> 100	7.39	> 100
O=C(Nc1nc(-c2ccc(Cl)cc2)cs1)c1cc(O)c(O)c(O)c1	150	> 5000	700	2080	181	964	349	> 5000	162	3990	197	1680	195	922	166	923	172	3780	144	> 5000
COC(=O)c1c[nH]c2cc(OC(C)C)c(OC(C)C)cc2c1=O	> 100	> 100	> 100	> 100	> 100	> 100	> 100	> 100	> 100	> 100	> 100	> 100	> 100	> 100	> 100	> 100	> 100	> 100	> 100	> 100
Nc1[nH]nc2nc(-c3cc(Cl)ccc3Cl)cc(-c3ccc(F)cc3)c12	28.5	> 100	19.1	36.1	19.7	58	11.8	37.5	51.5	> 100	18.4	50.5	18.9	39.7	18.3	42.3	20.4	38.6	35.7	> 100
CC12OC(CC(O)C1O)n1c3ccccc3c3c4c(c5c6ccccc6n2c5c31)C(=O)N(CCN1CCOCC1)C4=O (stereo unspecified)	1.26	8.21	3.25	10.6	0.205	1.7	0.242	8.02	0.765	5.37	1.55	9.87	0.625	5.51	1.31	5.03	1.02	6.12	1.46	13.9
C[C@@H](Nc1cc(F)cc(F)c1)c1cc(C(=O)N(C)C)cc2c(=O)cc(N3CCOCC3)oc12	14.9	> 100	10.4	> 100	5.61	> 100	0.894	99	0.0398	3.64	36.7	> 100	10.2	> 100	0.0251	0.973	7.14	> 100	10.7	> 100
COc1cc2c(cc1OC)C(C(CCCCCC(CCC(C)C)C1NCCc3cc(OC)c(OC)cc31)CCC(C)C)NCC2 (stereo unspecified)	0.274	0.851	0.188	0.357	0.217	0.436	0.651	1.91	1.62	3.05	0.327	0.974	0.199	0.388	1.3	2.75	1.44	2.87	1.45	2.87
CCc1nc(C)cn1C(=O)OCc1nc2nc(Cl)nc(N3CCOCC3)c2[nH]1	0.677	2.22	1.84	3.44	1.7	3.76	0.633	2.44	0.579	2.06	0.696	3.1	0.364	2.3	0.658	2.01	1.35	2.74	1.43	2.84
C=C1c2nc3ccccc3n2C=C(c2cccc(Cl)c2)N1Cc1ccc(OC)cc1	0.535	> 100	2.32	13.5	0.416	10.5	0.331	> 39.4	0.452	> 100	0.361	5.75	0.496	11.7	1.16	13.1	1.26	50.3	1.04	> 100
COc1ccc(OC)c(Nc2nc3nonc3nc2Nc2cccc(Br)c2)c1	0.756	> 100	0.818	> 100	0.504	> 100	1.63	> 100	1.25	8.12	0.309	3.05	0.53	> 100			0.405	7.07	0.692	19.1
NCCCNc1nc2ccccc2c2c(=O)c3cc(F)ccc3sc12	1.43	2.84	1.64	3.14	1.65	3.22	1.4	2.88	1.31	2.64	1.77	3.65	1.43	2.77	1.42	2.74	1.48	2.93		
